# Results: US20250099455A1, “TREATMENT FOR CONGESTIVE HEART FAILURE” (FibroGen, Inc., priority 2022, published 2025)
# Entries after “also recorded” stand apart in the source; their conditions may differ.
# Experiments:
# [1] = test system: congestive heart failure subsequent to myocardial infarction; test: Rat CHF subsequent to myocardial infarction, every other day dosing (Example 1); assay type: in vivo
# Method: (§1) The effect of the compound of Formula I on cardiac function in congestive heart failure (CHF) was studied by inducing CHF subsequent to myocardial infarction (MI). Three groups of rats (n=12) were subjected to MI by 30 minute ligation of the left coronary artery followed by reperfusion. In a sham group, rats underwent a similar surgical procedure except that the left coronary artery was not occluded. Treatment with the compound of Formula I was initiated 2 days after reperfusion. In the MI groups, rats were dosed orally every other day with vehicle, 6 mg/kg or 20 mg/kg compound from day 2 to day 26 post MI. In the sham group, rats were dosed with vehicle on the same schedule. At 28 days post-MI, cardiac function, heart weight, and complete blood count (CBC) were measured. Histomorphometric analysis was performed on cardiac sections to quantify collagen deposition with picrosirius red staining (PSR), remodeling with hematoxylin and eosin staining and blood vessel number with immunohistochemistry for smooth muscle α-actin. • Male Sprague Dawley rats • Ligation of left coronary artery for 30 minutes followed by reperfusion • Post-ligation recovery for 28 days • Cardiac function 28 days after ischemia-reperfusion using a Millar pressure-volume catheter inserted in the left ventricle via the carotid artery • Record pressure-volume loops over several cardiac cycles and derived cardiac function parameters
# [2] = test system: congestive heart failure subsequent to myocardial infarction; test: Rat CHF subsequent to myocardial infarction, delayed treatment (Example 2); assay type: in vivo
# Method: The effect of delayed treatment with the compound of Formula I on cardiac function in congestive heart failure (CHF) was studied by inducing CHF subsequent to MI. Four groups of rats (n=11-12) were subjected to MI by 30 minute ligation of the left coronary artery followed by reperfusion. In a sham group, rats underwent a similar surgical procedure except that the left coronary artery was not occluded. Cardiac function was measured in one group at 28 days post-MI (Baseline). In the remaining MI groups, dosing with vehicle or test article was initiated on Day 28. Rats were orally dosed every other day with vehicle, 6 mg/kg or 20 mg/kg compound from day 28 until day 54 post-MI. At 56 days post-MI, cardiac function, heart weight and complete blood count (CBC) were measured. • Male Sprague Dawley rats • Ligation of left coronary artery for 30 minutes followed by reperfusion • Post-ligation recovery for 28 days • Cardiac function 28 days after ischemia-reperfusion using a Millar pressure-volume catheter inserted in the left ventricle via the carotid artery • Record pressure-volume loops over several cardiac cycles and derived cardiac function parameters
# [3] = test system: congestive heart failure subsequent to myocardial infarction; test: Rat CHF subsequent to myocardial infarction, daily dosing (Example 4); assay type: in vivo
# Method: as §1, with “A similar experiment was carried out in which rats were dosed more frequently with a lower dose. Animals were dosed orally every day with vehicle, 2 mg/kg, 6 mg/kg or 20 mg/kg compound from day 2 to day 26 post MI. […] The” for “The”, “Four” for “Three”, “daily” for “every other day”, “vehicle, 2 mg/kg,” for “vehicle,”, “measured.” for “measured. Histomorphometric analysis was performed on cardiac sections to quantify collagen deposition with picrosirius red staining (PSR), remodeling with hematoxylin and eosin staining and blood vessel number with immunohistochemistry for smooth muscle α-actin.”
# [4] = test system: congestive heart failure subsequent to myocardial infarction; test: Acute myocardial ischemia induced HF, duration of administration (regimens); assay type: in vivo, rat
# [5] = test system: permanent myocardial ischemia induced HF; test: Permanent myocardial ischemia induced HF; assay type: in vivo, rat; conditions: 6, 20 mg/kg daily, 4 weeks; at both doses
# [6] = test system: diastolic dysfunction HF in obese ZSF1 rats; test: ZSF1 model of heart failure with preserved ejection fraction (HFpEF), monotherapy; assay type: in vivo, rat
# Description: This study determined the effects of the compound of Formula I on cardiac function after 16 weeks of treatment in male obese ZSF1 rats.
# Lean ZSF1 rats were used as controls.
# The obese ZSF1 rat was developed by crossing diabetic Zucker fatty rats with spontaneously hypertensive heart failure (SHHF) rats
# • Hypertension • Impaired renal function • Obesity • Type 2 diabetes • Insulin resistance, hyperinsulinemia • Hypertriglyceridemia, • Hypercholesterolemia
# [7] = test system: acute myocardial ischemia; test: Acute cardioprotection: infarct size post-acute myocardial ischemia; assay type: in vivo
# [8] = 6 or 20 mg/kg oral QOD day 2-26 post MI, 28 days post-MI
# [9] = 6 or 20 mg/kg oral QOD day 2-26 post MI, 28 days post-MI, vs vehicle
# [10] = histomorphometry of left ventricle, QOD dosing, 28 days
# [11] = delayed administration, 6, 20 mg/kg QOD, 4 weeks
# [12] = delayed: 6 or 20 mg/kg oral QOD day 28-54 post-MI, 56 days post-MI
# [13] = delayed: 6 or 20 mg/kg oral QOD day 28-54 post-MI, 56 days post-MI, vs vehicle
# [14] = 2, 6 or 20 mg/kg oral daily day 2-26 post MI, 28 days post-MI
# [15] = 2, 6 or 20 mg/kg oral daily day 2-26 post MI, 28 days post-MI, vs vehicle
# [16] = 20 mg/kg daily for 7, 14 or 28 days
compound,measurement,setting,value
"CC(C)(CC(=O)O)NC(=O)c1nc(C#N)c2cc(Oc3ccccc3)ccc2c1O [Formula I, 3-[(1-cyano-4-hydroxy-7-phenoxy-isoquinoline-3-carbonyl)-amino]-3-methyl-butyric acid]",collagen deposition,"[1]; 6, 20 mg/kg QOD, 4 weeks",reduced; also recorded: reduction in cardiac hypertrophy
same,ESPVR slope,[1]; [8],normalized
same,circulating hemoglobin level,[1]; [8],did not produce a concomitant significant increase; also recorded: without any concomitant rise
same,other CBC parameters,[1]; [8],did not produce a concomitant significant increase in circulating hemoglobin level or have a significant effect
same,arterial elastance,[1]; [9],significantly improved
same,cardiac hypertrophy,[1]; [9],significantly improved; also recorded: significant improvement; also recorded: reduced; also recorded: reduction in cardiac hypertrophy
same,cardiac output,[1]; [9],significantly improved; also recorded: significant improvement
same,ejection fraction,[1]; [9],significantly improved; also recorded: significant improvement; also recorded: improved at both doses)
same,end-diastolic pressure,[1]; [9],significantly improved
same,end-systolic pressure,[1]; [9],significantly improved
same,end-systolic volume,[1]; [9],significantly improved; also recorded: significant improvement
same,relaxation time,[1]; [9],significantly improved; also recorded: significant improvement
same,stroke volume,[1]; [9],significantly improved; also recorded: significant improvement
same,stroke work,[1]; [9],significantly improved; also recorded: significant improvement
same,cardiac contractility,[1]; every day or every other day for 28 days,significant improvement
same,hypervascularization in the peri-infarct area,[1]; [10],significant reduction
same,left ventricular wall thinning / wall thickness,[1]; [10],prevention of ventricular wall thinning; also recorded: preserved
same,diastolic function,[2]; [11],Some improvement in diastolic
same,systolic function,[2]; [11],improved systolic function (ejection
same,cardiac hypertrophy,[2]; [12],improved; also recorded: Some improvement in diastolic
same,dPdtmax,[2]; [12],improved
same,end-diastolic volume,[2]; [12],improved
same,hematocrit,[2]; [12],no significant effect; also recorded: no erythropoietic effect
same,hemoglobin level,[2]; [12],no significant effect; also recorded: no erythropoietic effect
same,relaxation time,[2]; [12],improved; also recorded: improvement
same,ejection fraction,[2]; [13],significantly improved; also recorded: improvement; also recorded: fraction improved at both doses)
same,end-systolic volume,[2]; [13],significantly improved; also recorded: improvement
same,cardiac contractility,"[2]; started 28 days after MI, every other day for 28 days",improvement
same,collagen deposition,"[3]; 2, 6, 20 mg/kg daily, 4 weeks",Significant reduction in cardiac
same,diastolic function,"[3]; 2, 6, 20 mg/kg daily, 4 weeks","deposition, improvement in systolic"
same,systolic function,"[3]; 2, 6, 20 mg/kg daily, 4 weeks","deposition, improvement in systolic"
same,circulating hemoglobin level,[3]; [14],did not produce a concomitant significant increase; also recorded: without any concomitant rise
same,other CBC parameters,[3]; [14],did not produce a concomitant significant increase in circulating hemoglobin level or have a significant effect
same,arterial elastance,[3]; [15],significantly improved
same,cardiac hypertrophy,[3]; [15],significantly improved; also recorded: significant improvement; also recorded: Significant reduction in cardiac
same,cardiac output,[3]; [15],significantly improved; also recorded: significant improvement
same,dPdtmax,[3]; [15],significantly improved
same,ejection fraction,[3]; [15],significantly improved; also recorded: significant improvement; also recorded: fraction improved at all doses)
same,end systolic volume,[3]; [15],significantly improved; also recorded: significant improvement
same,end-diastolic pressure,[3]; [15],significantly improved
same,relaxation time,[3]; [15],significantly improved; also recorded: significant improvement
same,stroke volume,[3]; [15],significantly improved; also recorded: significant improvement
same,stroke work,[3]; [15],significantly improved; also recorded: significant improvement
same,effectiveness of a lower dose at more frequent intervals vs a higher dose at less frequent intervals,"[3]; daily 2, 6, 20 mg/kg vs every other day dosing",equally effective
same,cardiac contractility,[3]; daily for 28 days,significant improvement
same,collagen deposition,[4]; [16],All regimens reduced collagen
same,diastolic function,[4]; [16],14 and 28 days regimens improved
same,systolic function,[4]; [16],14 and 28 days regimens improved
same,cardiac hypertrophy,"[4]; 20 mg/kg daily, 14 and 28 days regimens",reduced cardiac hypertrophy
same,cardiac hypertrophy,[5],Non-significant reduction in cardiac
same,collagen deposition,[5],Non-significant reduction in cardiac
same,hypertension,"[6]; 20 mg/kg QOD, 16 weeks",Significant stabilization of
same,diastolic function,"[6]; 20 mg/kg QOD, 16 weeks, end-diastolic pressure, left atrium weight, relaxation time, dp/dt minimum",improved; also recorded: Significant improvement in
same,"blood pressure (mean, diastolic, systolic)",[6]; monotherapy,normalized
same,infarct size,[7],reduced; also recorded: dose-dependent reducing affect
